According to patent US20230203174A1, “COMPOSITION FOR PREVENTING OR ALLEVIATING CELLULAR SENESCENCE” (SEOUL NATIONAL UNIVERSITY R&DB FOUNDATION, priority 2021, published 2023):
Like-named read-outs stand apart in the source and are kept apart here.

How the values were obtained:
Cdkn1a (p21) mRNA = experiment: RT-qPCR of senescence marker Cdkn1a; assay type: cell-based, mouse
Text: (§1) RNA Preparation and Quantitative Real-Time PCR (RT-qPCR)

MC3T3-E1 cells [1] = experiment: SA-β-gal staining of senescent cells; assay type: cell-based, mouse
Description: Senescence Associated-β-Galactosidase (SA-β-gal) Staining
SA-β-gal staining was performed with reference to the paper (2009) published by the Debacq-Chainiaux group. Cells cultured on coverslips were fixed in 4% paraformaldehyde at room temperature for 6 min. After washing cells three times with PBS, the cells were reacted for 16-24 hours in a staining solution [40 mM Na2HPO4, pH 6.0, 150 mM NaCl, 2 mM MgCl2, 5 mM K3Fe(CN)6, 5 mM K4Fe(CN)6 and 1 mg/ml X-Gal]. After washing 3 times with PBS, it was permeabilized with PBS containing 0.2% Triton X-100 at room temperature for 15 minutes. For nuclear staining, a mounting solution containing 4′,6-diamidino-2-phenylindole (DAPI) was used (AR-6501-01; ImmunoBioScience Corp., Mukilteo, Wash., USA). Images were acquired using an Eclipse TS-100 inverted microscope (Nikon). Using the ImageJ program, nucleus (DAPI) and SA-b-gal positive cells were counted in each image and compared as an average of % SA-β-gal positive cells (SA-β-gal positive cells/nuclear number×100) using the ImageJ program using 10 images of different parts per group.

[2] = test system: CCL2, CCL5, and CCL7 mRNA; experiment: RT-qPCR of SASP factors CCL2, CCL5, CCL7; assay type: cell-based, mouse
Text: as §1

MC3T3-E1 cells [3] = experiment: Osteoblast differentiation by ALP and Alizarin Red S staining; assay type: cell-based, mouse
Text: In addition, it was shown that and a level of protein and an expression of cdkn1a (p21) mRNA which is a molecular marker of cellular senescence, were increased by H2O2 treatment (B and C).

p21 = conditions: MC3T3-E1 cells, H2O2 treatment
Description: (§2) Protein was extracted using a PRO-PREP protein extraction solution (Cat #17081, iNtRON, Korea) according to a manufacturer's protocol. The same amount of protein was transferred to a polyvinylidene fluoride (PVDF) membrane after sodium dodecyl sulfate polyacrylamide gel electrophoresis (SDS-PAGE). After blocking with 5% non-fat milk, membranes were blotted in primary antibody solution at 4° C. in a refrigerator overnight. A membrane reacted with a primary antibody was washed 3 times every 5 minutes with PBS-0.05% Tween 20 solution, then reacted with a secondary antibody for 1-2 hours at room temperature, and then the membrane was washed 3 times with PBS-0.05% Tween 20 solution for 5 minutes. Thereafter, the images were acquired on an ImageQuant LAS4000 Mini (GE Healthcare) using chemiluminescence (Clarity™ Western ECL Substrate, #170-5060; Bio-Rad). α-Tubulin or β-actin was used as a protein loading control.

[4] = test system: NFκB RelA transcription factor; conditions: MC3T3-E1 cells, 100 μM H2O2 for 24 h
Description: After collecting cells with PBS, a cell pellet was equally divided into two tubes for whole-cell lysate and cell fractionation. The whole-cell lysate prepared with 100 μL of lysis buffer composed of 25 mM Tris-HCl pH 7.4, 150 mM NaCl, 1% NP-40, 1 mM EDTA, 5% glycerol, protease inhibitor cocktail (Roche, #11-836-153-001), phosphatase inhibitor cocktail 2 and 3 (Sigma-Aldrich, P5726 and P004 SEQ ID NO: 4). The nuclear-cytoplasmic fraction was isolated using NEPER™ nuclear and cytoplasmic extraction reagents (78855; Life Technologies, Carlsbad, Calif., USA) according to a manufacturer's protocol. Protein concentration was determined using the Pierce™ BCA Protein Assay Kit (Thermo Fisher Scientific). The whole-cell lysate, a cytoplasmic extract and a nuclear extract were separated by SDS-PAGE, transferred to PVDF membrane, and then Western blot analysis was performed with designated primary and secondary antibodies. Tubulin and Lamin A/C were used as cytoplasmic and nuclear markers, respectively.
Cells cultured on coverslips were fixed in 4% paraformaldehyde, blocked with PBS containing 2% BSA, and then reacted in a refrigerator overnight in a primary antibody solution. […] A degree of fluorescence expression was observed using a confocal microscope (LSM 800, Carl Zeiss), and representative cells were selected and photographed.

PADI2 [5] = conditions: human-derived mesenchymal stromal cells (hMSC), 100 μM H2O2
Description: as §2
Total RNA was isolated using the RNeasy Mini Kit (Qiagen, Hilden, Germany). Total RNA (1 μg) was reverse transcribed into cDNA using PrimeScript RT Master Mix (Perfect Real Time) (RR036A; TaKaRa, Japan) and a real-time PCR was performed on an STEPONEPLUS™ Real-Time PCR System (APPLIED BIOSYSTEMS™) instr μMent using TB GREEN® PREMIX EX TAQ™ (RR420A; TaKaRa). […]

PADI2 [6] = experiment: PADI2 expression (RT-qPCR, Western blot) in MC3T3-E1 cells; assay type: cell-based, mouse
Text: as §1

[7] = 1 μM Bay11-7082 co-treated with 100 μM H2O2
[8] = Padi2 knockdown plus NFκB inhibition

| Compound | expression of Cdkn1a (Cdkn1a (p21) mRNA; [7]) | Cdkn1a expression increased by Padi2 knockdown (Cdkn1a (p21) mRNA; [8]) | number of senescent cells increased by H2O2 alone (MC3T3-E1 cells [1]; [7]) | number of senescent cells increased by Padi2 knockdown (MC3T3-E1 cells [1]; [8]) | expressions of CCL2, CCL5, and CCL7 (mRNA levels) increased by H2O2 ([2]; combined with H2O2 treatment) | function degradation of osteoblast (ALP and ARS staining) (MC3T3-E1 cells [3]; caused by excessive ROS and Padi2 knockdown) | expression of cdkn1a (p21) mRNA (Cdkn1a (p21) mRNA; MC3T3-E1 cells, H2O2 treatment) | number of SA-β-gal positive cells (MC3T3-E1 cells [1]; MC3T3-E1 cells, 50 μM or 100 μM H2O2 for 3 days) | CCL2, CCL5, and CCL7 in SASP (RNA-seq and RT-qPCR) ([2]; upon H2O2 treatment) | level of p21 protein (p21) | NFκB RelA activation and transfer from cytoplasm to nucleus [4] | expression of PADI2 (mRNA level and protein level) (PADI2 [5]) | osteoblast differentiation function (ALP and Alizarin Red S staining) (MC3T3-E1 cells [3]; MC3T3-E1 cells, excessive ROS (H2O2)) | Padi2 mRNA level (PADI2 [6]; MC3T3-E1 cells, 100 μM H2O2 for 1, 4, and 7 days in differentiation medium, RT-qPCR) | expression of PADI2 (mRNA level and protein level) (PADI2 [6]; mouse-derived MC3T3-E1 cells, 100 μM H2O2) |
| --- | --- | --- | --- | --- | --- | --- | --- | --- | --- | --- | --- | --- | --- | --- | --- |
| Cc1ccc(S(=O)(=O)/C=C/C#N)cc1 [Bay11-7082] | reduced | decreased | reduced | decreased | significantly reduced | restored | – | – | – | – | – | – | – | – | – |
| OO [H2O2, hydrogen peroxide] | – | – | – | – | – | – | increased | increased in a H2O2 concentration-dependent manner | significantly increased | increased | migration to the nucleus was observed | significantly reduced | significantly inhibited | significantly reduced | significantly reduced |
